Assay results published in PubChem BioAssay AID330 (DTP/NCI, 2004).
Several values for one entry are separate records, joined by “and”; a condition that tells them apart may be missing. Identical values can stand only once. Inconclusive results and toxic doses are left out. Rule for the calls: active = survival T/C of 150% or more; inactive = T/C below 125% in these data.

System: P388 leukemia ip, CD2F1 mice, survival T/C
Assay: NCI In Vivo Anticancer Drug Screen. Data for tumor model P388 Leukemia (intraperitoneal) in CD2F1 (CDF1) mice
Details: endpoint: median survival time, higher = longer survival
Outline: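 Mice carrying the transplanted tumor received test compound or vehicle. Survival was recorded in each group, and the value is the treated-group measurement divided by that of the vehicle-treated control group.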

[1] = dose: 50.0 mg/kg/injection, schedule: Q01DX005 (ip), vehicle: Klucel (hydroxypropylcellulose) (HPC)
[2] = dose: 100.0 mg/kg/injection, schedule: Q01DX005 (ip), vehicle: Klucel (hydroxypropylcellulose) (HPC)
[3] = dose: 50.0 mg/kg/injection, schedule: Q01DX005 (ip), vehicle: saline with Tween-80
[4] = dose: 50.0 mg/kg/injection, schedule: Q01DX005 (ip), vehicle: saline
[5] = dose: 50.0 mg/kg/injection, schedule: Q01DX009 (ip), vehicle: saline with Tween-80
[6] = dose: 100.0 mg/kg/injection, schedule: Q01DX009 (ip), vehicle: saline with Tween-80
[7] = dose: 200.0 mg/kg/injection, schedule: Q01DX009 (ip), vehicle: saline with Tween-80
[8] = dose: 200.0 mg/kg/injection, schedule: Q01DX005 (ip), vehicle: Klucel (hydroxypropylcellulose) (HPC)
[9] = dose: 25.0 mg/kg/injection, schedule: Q01DX009 (ip), vehicle: saline with Tween-80
[10] = dose: 50.0 mg/kg/injection, schedule: Q01DX009 (ip), vehicle: Klucel (hydroxypropylcellulose) (HPC)
[11] = dose: 100.0 mg/kg/injection, schedule: Q01DX009 (ip), vehicle: Klucel (hydroxypropylcellulose) (HPC)
[12] = dose: 200.0 mg/kg/injection, schedule: Q01DX009 (ip), vehicle: Klucel (hydroxypropylcellulose) (HPC)
[13] = dose: 100.0 mg/kg/injection, schedule: Q01DX005 (ip), vehicle: saline with Tween-80
[14] = dose: 200.0 mg/kg/injection, schedule: Q01DX005 (ip), vehicle: saline with Tween-80

Measured: T/C

O=C(O)C1C(C(=O)O)C2C(=O)C=CC1N2Cc1ccccc1 (stereo not drawn)
inactive: dose: 12.5 mg/kg/injection, schedule: Q01DX005 (ip), vehicle: Klucel (hydroxypropylcellulose) (HPC) 105 % of control | dose: 25.0 mg/kg/injection, schedule: Q01DX005 (ip), vehicle: Klucel (hydroxypropylcellulose) (HPC) 99 % of control and 116 % of control | [1] 112 % of control and 114 % of control and 115 % of control | [2] 103 % of control and 118 % of control and 122 % of control

Nc1c(CC(=O)O)cccc1C(=O)c1ccccc1
inactive: dose: 50.0 mg/kg/injection, schedule: Q01DX009 (ip), vehicle: saline 87 % of control | dose: 100.0 mg/kg/injection, schedule: Q01DX009 (ip), vehicle: saline 92 % of control

CCCCCNC(=O)c1csc(-c2csc(CCNC(C)=O)n2)n1
inactive: dose: 12.5 mg/kg/injection, schedule: Q01DX009 (ip), vehicle: distilled water + Tween-80 100 % of control | dose: 25.0 mg/kg/injection, schedule: Q01DX009 (ip), vehicle: distilled water + Tween-80 103 % of control | dose: 50.0 mg/kg/injection, schedule: Q01DX009 (ip), vehicle: distilled water + Tween-80 92 % of control | dose: 100.0 mg/kg/injection, schedule: Q01DX009 (ip), vehicle: distilled water + Tween-80 91 % of control

CCCC(C)N(CCCNc1cc(OC)cc2cccnc12)CC(C)C (stereo not drawn)
inactive: dose: 12.5 mg/kg/injection, schedule: Q01DX005 (ip), vehicle: saline 100 % of control | dose: 25.0 mg/kg/injection, schedule: Q01DX005 (ip), vehicle: saline 107 % of control | [3] 96 % of control | [4] 94 % of control

O=C(CC(O)(C(F)(F)F)C(F)(F)F)c1ccc(C(=O)CC(O)(C(F)(F)F)C(F)(F)F)cc1
inactive: dose: 12.5 mg/kg/injection, schedule: Q01DX009 (ip), vehicle: other 100 % of control | dose: 25.0 mg/kg/injection, schedule: Q01DX009 (ip), vehicle: other 100 % of control | dose: 50.0 mg/kg/injection, schedule: Q01DX009 (ip), vehicle: other 100 % of control | dose: 66.0 mg/kg/injection, schedule: Q04DX003 (ip), vehicle: other 95 % of control | dose: 100.0 mg/kg/injection, schedule: Q04DX003 (ip), vehicle: other 95 % of control | dose: 150.0 mg/kg/injection, schedule: Q04DX003 (ip), vehicle: other 100 % of control

Cc1cc(CN2CCN(CCO)CC2)c(O)c(CN2CCN(CCO)CC2)c1
inactive: dose: 60.0 mg/kg/injection, schedule: Q01DX005 (ip), vehicle: saline 105 % of control | dose: 120.0 mg/kg/injection, schedule: Q01DX005 (ip), vehicle: saline 102 % of control

O=[N+]([O-])c1ccc(N2N=N[C@@H]3C4CCC(C4O)[C@@H]32)cc1 (stereo partly drawn)
inactive: [5] 88 % of control | [6] 97 % of control | [7] 89 % of control

COc1cc(/C=C/C(=O)O)cc(OC)c1
inactive: [1] 103 % of control | [2] 103 % of control | [8] 109 % of control

CCCn1cnc2c(sc3ccccc32)c1=O
inactive: [1] 101 % of control | [2] 93 % of control | [8] 93 % of control

COC(=O)[C@H]1O[C@H]1c1cc[n+]([O-])cc1
inactive: dose: 25.0 mg/kg/injection, schedule: Q01DX005 (ip), vehicle: water 101 % of control | dose: 50.0 mg/kg/injection, schedule: Q01DX005 (ip), vehicle: water 102 % of control | dose: 100.0 mg/kg/injection, schedule: Q01DX005 (ip), vehicle: water 105 % of control | dose: 200.0 mg/kg/injection, schedule: Q01DX005 (ip), vehicle: water 109 % of control

COc1ccc(-c2coc3cc(O)cc(O)c3c2=O)cc1
inactive: [9] 94 % of control | [10] 110 % of control | [5] 97 % of control | [11] 107 % of control | [6] 93 % of control | [12] 104 % of control | dose: 400.0 mg/kg/injection, schedule: Q01DX009 (ip), vehicle: Klucel (hydroxypropylcellulose) (HPC) 96 % of control

Cc1ccc(N/N=c2\c3nc4ccccc4nc2n(-c2ccccc2C)c(=S)n3-c2ccc(C)cc2)cc1
inactive: dose: 60.0 mg/kg/injection, schedule: Q01DX005 (ip), vehicle: saline with Tween-80 93 % of control | dose: 120.0 mg/kg/injection, schedule: Q01DX005 (ip), vehicle: saline with Tween-80 96 % of control

COC(=O)c1nnn(-c2ccc(Cl)cc2C)c1C(=O)c1ccc(OC)cc1
inactive: dose: 60.0 mg/kg/injection, schedule: Q01DX005 (ip), vehicle: Klucel + Tween-80 102 % of control | dose: 120.0 mg/kg/injection, schedule: Q01DX005 (ip), vehicle: Klucel + Tween-80 108 % of control | dose: 240.0 mg/kg/injection, schedule: Q01DX005 (ip), vehicle: Klucel + Tween-80 93 % of control

Cc1cc(=O)n2c(n1)sc1cc3ccccc3cc12
inactive: dose: 100.0 mg/kg/injection, schedule: Q04DX002 (ip), vehicle: Klucel (hydroxypropylcellulose) (HPC) 98 % of control | dose: 200.0 mg/kg/injection, schedule: Q04DX002 (ip), vehicle: Klucel (hydroxypropylcellulose) (HPC) 100 % of control | dose: 400.0 mg/kg/injection, schedule: Q04DX002 (ip), vehicle: Klucel (hydroxypropylcellulose) (HPC) 99 % of control

O=C1CC2CCCCC2CC1c1ccc(OCc2ccccc2)c(OCc2ccccc2)c1 (stereo not drawn)
inactive: [5] 91 % of control | [6] 97 % of control | [7] 103 % of control

CC1=C/C(=C\C(=O)N2CCCCC2)N=C(N[N+](=O)[O-])N1
inactive: dose: 50.0 mg/kg/injection, schedule: Q01DX009 (ip), vehicle: distilled water + Tween-80 + alcohol 111 % of control | dose: 100.0 mg/kg/injection, schedule: Q01DX009 (ip), vehicle: distilled water + Tween-80 + alcohol 115 % of control | dose: 200.0 mg/kg/injection, schedule: Q01DX009 (ip), vehicle: distilled water + Tween-80 + alcohol 105 % of control

OC(c1ccccc1)C1(c2ccccc2)CCN(Cc2ccccc2)CC1 (stereo not drawn)
inactive: [3] 100 % of control | [13] 100 % of control | [14] 96 % of control

O=C(Nc1nnc(-c2ccccc2)s1)c1cc(=O)c2cc([N+](=O)[O-])ccc2o1
inactive: [3] 100 % of control | [13] 102 % of control | [14] 96 % of control

CC1CCC2C(C)C(=O)OC2C2(C)C(=O)C=CC12 (stereo not drawn)
inactive: dose: 12.5 mg/kg/injection, schedule: Q01DX009 (ip), vehicle: saline with Tween-80 103 % of control | [9] 113 % of control | [5] 110 % of control

CC1=C(C)CC2(CC1)C(=O)C1(CCC(C)=C(C)C1)C2=O (stereo not drawn)
inactive: [5] 93 % of control | [6] 90 % of control | [7] 99 % of control

Cc1c(Cl)cccc1NS(=O)(=O)c1ccccc1
inactive: dose: 100.0 mg/kg/injection, schedule: Q04DX003 (ip), vehicle: saline with Tween-80 104 % of control | dose: 200.0 mg/kg/injection, schedule: Q04DX003 (ip), vehicle: saline with Tween-80 104 % of control | dose: 400.0 mg/kg/injection, schedule: Q04DX003 (ip), vehicle: saline with Tween-80 90 % of control

O=S(=O)(c1ccc(F)cc1)C1C(c2ccccc2)=NNC1c1ccccc1Cl (stereo not drawn)
inactive: [3] 95 % of control | [13] 95 % of control | [14] 106 % of control

COc1cccc2c1C(=O)c1c(O)c3c(c(O)c1C2=O)CC(O)(C(C)=O)CC3OC1CC(NC(=O)C(CCCCN)NC(=O)C(N)CCN)C(O)C(C)O1 (stereo not drawn)
inactive: dose: 2.5 mg/kg/injection, schedule: Q04DX003 (ip), vehicle: water 94 % of control | dose: 5.0 mg/kg/injection, schedule: Q04DX003 (ip), vehicle: water 94 % of control | dose: 10.0 mg/kg/injection, schedule: Q04DX003 (ip), vehicle: water 98 % of control | dose: 20.0 mg/kg/injection, schedule: Q04DX003 (ip), vehicle: water 101 % of control | dose: 40.0 mg/kg/injection, schedule: Q04DX003 (ip), vehicle: water 105 % of control | dose: 80.0 mg/kg/injection, schedule: Q04DX003 (ip), vehicle: distilled water + Tween-80 96 % of control | dose: 160.0 mg/kg/injection, schedule: Q04DX003 (ip), vehicle: distilled water + Tween-80 105 % of control | dose: 320.0 mg/kg/injection, schedule: Q04DX003 (ip), vehicle: distilled water + Tween-80 105 % of control

CSc1nc(N)c(C(=O)Nc2ccc3ccccc3c2)s1
inactive: [10] 107 % of control | [11] 98 % of control | [12] 99 % of control

CC(C)(C#N)NCCCNC(C)(C)C#N
inactive: [4] 100 % of control | dose: 100.0 mg/kg/injection, schedule: Q01DX005 (ip), vehicle: saline 97 % of control | dose: 200.0 mg/kg/injection, schedule: Q01DX005 (ip), vehicle: saline 95 % of control
